Data from patent US20240150339A1, “Compounds and Their Use as PDE4 Activators” (Mironid Limited, priority 2021, published 2024).

Tests used:
[1] = target: T1, PDE4D5 (Homo sapiens, UniProt Q08499); assay: PDE assay, activation of full-length human PDE4D5 long form ([3H]cAMP radio-assay); assay type: biochemical; conditions: 30 μM test compound; mean % increase in counts over basal activity
T1 construct: Using Full-Length Human PDE4 Isoforms: Long Forms PDE4D5, PDE4C3, PDE4B1 and Short Form PDE4B2; made in house; cytosol fraction of the cell lysate, not purified
In short: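 Cytosol (100,000 g) from HEK293 cells overexpressing full-length human PDE4 was preincubated with compound for 15 min at room temperature in 10 mM Tris/5 mM MgCl2. Reaction ran with 1 μM [3H]cAMP for 10 min at 30° C, then snake venom conversion, Dowex separation and scintillation counting; activity reported as % increase.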

[2] = target: T2, PDE4C3 (Homo sapiens, UniProt Q08493); assay: PDE assay, activation of full-length human PDE4C3 long form ([3H]cAMP radio-assay); assay type: biochemical; conditions: 30 μM test compound; mean % increase in counts over basal activity
T2 construct: Using Full-Length Human PDE4 Isoforms: Long Forms PDE4D5, PDE4C3, PDE4B1 and Short Form PDE4B2; made in house; host or cells: HEK 293 transfected with pcDNA3.1 or pDEST PDE4 expression vector; cytosol fraction of the lysate by analogy to PDE4D5
Text: Experiment 1: Measurement of Modulation of Enzyme Activity by PDE4 Long Form Activators of the Present Invention Using Full-Length Human PDE4 Isoforms: Long Forms PDE4D5, PDE4C3, PDE4B1 and Short Form PDE4B2
(Marchmont, R. J. and Houslay, M. D. Biochem. J. 187: 381-92, 1980)
For transient transfection of exogenous PDE4 long isoforms, HEK 293 cells were transfected with pcDNA3.1 or pDEST™ PDE4 expression vectors using Lipofectamine LTX/Plus reagent (Invitrogen) as outlined by the manufacturer. […]
HEK-PDE4D5 cells were seeded out in 100 mm plates and incubated at 37° C. in an atmosphere of 5% CO2, 95% air. Cell lysates were prepared using KHEM buffer [50 mM KCl, 10 mM EGTA, 50 mM HEPES (pH 7.2), 1.92 mM MgCl2].
To prepare the cell lysates, the 100 mm plates containing the cells were placed on ice and washed with ice-cold PBS (phosphate buffered saline, pH 7.4). KHEM buffer (500 μl) was added to the cells. Cells were then scraped off the plate and triturated using a needle (BD Microlance™ 0.8, 40 mm). The lysed cells were then centrifuged at 2000 rpm for 10 minutes to remove cell debris and the supernatant (cell lysate containing recombinant PDE4D5) was transferred to a fresh tube and kept on ice.
The cell lysate containing recombinant PDE4D5 was transferred into a centrifuge tube and placed into an ultracentrifuge (BECKMAN COULTER) and spun at high speed (100,000 g) for 30 minutes at 4° C. The cytosol fraction was then collected and its protein amount determined using a BCA protein assay.
PDE assays were performed in thin walled V-bottomed 96-well plates. The assays were performed at a final concentration of 10 mM Tris/5 mM MgCl2 μlus PDE4D5 cell lysate cytosol fraction, containing over-expressed PDE4D5, with and without test compound. The lysate/compound mix were incubated together for 15 min at room temperature on an orbital shaker prior to addition of [^3H] cAMP (final concentration 1 μM [^3H] cAMP; Perkin Elmer) to a final volume of 50 μl per reaction. The reactions were then incubated for 10 minutes at 30° C., terminated by heating for 2 min at 95° C. and allowed to cool. Snake venom (12.5 μl of 1 mg/ml; Crotalus atrox, Sigma) was then added and the plates were agitated and incubated for a further 15 minutes at 30° C. Dowex ion exchange resin (Sigma, chloride form, 200-400 mesh; 200 μl; prepared as a 1:1 Dowex: water stock, thoroughly re-suspended and diluted 2:1 with ethanol) was then added to each well and the plates incubated for 15 min at room temperature on an orbital shaker ensuring sufficient agitation for resin suspension (550 RPM). The reaction mixture was then transferred to a 96 well filter plate (Millipore; […] pore size) and filtered into a receiving 96-well plate to remove the dowex suspension. 30 μL of the filtered solution was then transferred to the wells of an Opti-plate (Perkin Elmer) 96 well assay plate and 120 μl of Microscint 40 scintillation fluid was added. The plate was then placed on an orbital shaker for 10 min at high speed (900 RPM) to mix the sample with scintillation fluid prior to quantitation using a plate based scintillation counter (Top-Count).
The % increase in counts in the presence of test compound at a particular concentration indicates the % increase in enzyme activity at that concentration.

T1 sequence (Q08499 1-745 isoform Q08499-6): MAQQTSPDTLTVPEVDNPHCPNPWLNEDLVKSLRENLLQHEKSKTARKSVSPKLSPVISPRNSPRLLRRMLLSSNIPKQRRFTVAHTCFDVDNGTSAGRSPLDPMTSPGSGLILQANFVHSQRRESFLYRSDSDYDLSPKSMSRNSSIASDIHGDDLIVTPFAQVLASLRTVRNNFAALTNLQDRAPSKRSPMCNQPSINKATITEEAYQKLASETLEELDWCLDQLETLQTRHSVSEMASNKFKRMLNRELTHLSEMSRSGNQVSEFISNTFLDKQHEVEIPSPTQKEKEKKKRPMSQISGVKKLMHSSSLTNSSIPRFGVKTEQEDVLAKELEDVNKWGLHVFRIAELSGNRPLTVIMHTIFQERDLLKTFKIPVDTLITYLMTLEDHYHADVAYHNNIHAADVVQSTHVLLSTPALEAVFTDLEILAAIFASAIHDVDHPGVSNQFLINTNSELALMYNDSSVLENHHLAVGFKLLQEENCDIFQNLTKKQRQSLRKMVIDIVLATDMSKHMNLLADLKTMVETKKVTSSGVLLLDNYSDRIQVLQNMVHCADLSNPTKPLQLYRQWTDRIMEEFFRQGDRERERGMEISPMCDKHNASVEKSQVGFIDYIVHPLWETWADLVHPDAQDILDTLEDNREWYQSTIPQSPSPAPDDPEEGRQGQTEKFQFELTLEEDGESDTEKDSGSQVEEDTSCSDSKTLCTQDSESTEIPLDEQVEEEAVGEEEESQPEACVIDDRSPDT
T2 sequence (Q08493 1-680 isoform Q08493-3): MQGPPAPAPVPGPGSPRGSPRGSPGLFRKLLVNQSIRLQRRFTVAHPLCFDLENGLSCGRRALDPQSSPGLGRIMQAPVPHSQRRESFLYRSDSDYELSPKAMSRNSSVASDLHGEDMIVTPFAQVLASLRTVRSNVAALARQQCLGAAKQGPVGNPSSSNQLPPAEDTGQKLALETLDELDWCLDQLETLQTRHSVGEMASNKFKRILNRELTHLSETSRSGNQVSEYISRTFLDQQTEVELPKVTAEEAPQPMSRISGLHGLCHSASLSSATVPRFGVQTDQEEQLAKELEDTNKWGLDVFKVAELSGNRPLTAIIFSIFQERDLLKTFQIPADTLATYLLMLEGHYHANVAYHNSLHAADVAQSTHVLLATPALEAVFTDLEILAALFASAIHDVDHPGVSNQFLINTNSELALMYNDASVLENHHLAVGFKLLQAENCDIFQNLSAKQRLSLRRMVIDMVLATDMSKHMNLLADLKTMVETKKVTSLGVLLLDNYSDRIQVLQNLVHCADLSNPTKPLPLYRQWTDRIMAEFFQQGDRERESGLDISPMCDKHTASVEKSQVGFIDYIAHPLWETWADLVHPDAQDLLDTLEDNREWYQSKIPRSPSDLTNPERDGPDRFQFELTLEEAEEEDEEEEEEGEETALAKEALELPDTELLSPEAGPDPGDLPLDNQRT

Compound `Cc1ncccc1-c1nc2ccc(C(=O)N[C@H]3CCOc4ccccc43)cc2s1` [Example 7, (S)-N-(chroman-4-yl)-2-(2-methylpyridin-3-yl)benzo[d]thiazole-6-carboxamide] has an activation at 30 µM [1] of 109% and an activation at 30 µM [2] of 105%.
